Data: patent US9969742B2, “Imidazotriazinone compounds” (Ironwood Pharmaceuticals, Inc., priority 2012, dated 2018)
Like-named read-outs stand apart in the source and are kept apart here.

Legend:
Assay type in all cases: biochemical
PDE1A = molecular target: T1, PDE1A (Homo sapiens, UniProt P54750); experiment: Phosphodiesterase enzyme screening assay, PDE1A
T1 construct: purchased Reaction Biology Corporation, Malvern, Pa
How it was run: (§1)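 Recombinant enzymes were run in 100 mM HEPES pH 7.5, 5 mM MgCl2, 1 mM DTT, 0.003% Brij with 4.0 μM cGMP substrate, started with cGMP or cAMP, 1 h at RT, and stopped with EDTA. Fluorescent substrate and product were separated by microfluidic mobility shift.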

PDE9A2 = molecular target: T2, PDE9A2 (Homo sapiens, UniProt O76083); experiment: Phosphodiesterase enzyme screening assay, PDE9A2
T2 construct: purchased Reaction Biology Corporation, Malvern, Pa
How it was run: as §1

PDE1B = molecular target: T3, PDE1B (Homo sapiens, UniProt Q01064); experiment: Phosphodiesterase enzyme screening assay, PDE1B
T3 construct: purchased Reaction Biology Corporation, Malvern, Pa
How it was run: as §1

[1] = ratio of IC50 values, value greater than 1 indicates greater selectivity for PDE9A2
[2] = Table 1, ratio of IC50 values, value greater than 1 indicates greater selectivity for PDE9A2
[3] = Table 1, 10 concentrations, 4.0 μM cGMP substrate, 1 hour at R.T., read-out: Band (PDE9A2 IC50)
[4] = ratio of IC50 values, PDE1A versus PDE9A2, value greater than 1 indicates greater selectivity for PDE9A2
[5] = ratio of IC50 values, PDE1B versus PDE9A2, value greater than 1 indicates greater selectivity for PDE9A2

T2 sequence (O76083 1-533 isoform O76083-2): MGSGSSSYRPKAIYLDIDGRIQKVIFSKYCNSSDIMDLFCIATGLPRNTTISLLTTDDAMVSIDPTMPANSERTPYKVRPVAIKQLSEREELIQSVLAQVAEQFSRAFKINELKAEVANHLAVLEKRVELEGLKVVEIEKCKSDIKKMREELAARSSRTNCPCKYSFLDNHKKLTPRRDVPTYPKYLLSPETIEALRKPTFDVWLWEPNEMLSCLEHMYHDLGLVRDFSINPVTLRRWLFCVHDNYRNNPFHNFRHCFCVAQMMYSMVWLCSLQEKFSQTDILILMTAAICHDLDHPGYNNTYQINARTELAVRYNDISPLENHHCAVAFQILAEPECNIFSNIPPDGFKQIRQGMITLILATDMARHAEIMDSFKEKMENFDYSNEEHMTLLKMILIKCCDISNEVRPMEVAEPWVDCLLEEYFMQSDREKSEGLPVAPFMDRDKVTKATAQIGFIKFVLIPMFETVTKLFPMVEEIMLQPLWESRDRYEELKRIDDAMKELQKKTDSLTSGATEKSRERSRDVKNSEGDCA
T3 sequence (Q01064 whole entry): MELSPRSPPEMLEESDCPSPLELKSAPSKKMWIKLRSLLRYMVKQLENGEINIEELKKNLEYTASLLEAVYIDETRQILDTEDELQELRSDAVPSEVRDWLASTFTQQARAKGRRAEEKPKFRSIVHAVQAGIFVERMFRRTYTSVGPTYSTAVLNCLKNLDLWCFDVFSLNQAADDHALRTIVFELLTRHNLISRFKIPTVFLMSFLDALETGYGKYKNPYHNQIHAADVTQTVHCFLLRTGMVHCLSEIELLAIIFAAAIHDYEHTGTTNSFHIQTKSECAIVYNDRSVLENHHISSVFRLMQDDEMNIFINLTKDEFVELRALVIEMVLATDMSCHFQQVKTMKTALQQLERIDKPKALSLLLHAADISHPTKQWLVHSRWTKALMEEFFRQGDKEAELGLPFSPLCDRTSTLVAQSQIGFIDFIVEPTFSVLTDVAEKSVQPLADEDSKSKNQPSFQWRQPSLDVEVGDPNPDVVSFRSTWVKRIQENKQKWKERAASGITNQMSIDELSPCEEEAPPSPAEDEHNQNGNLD
T1 sequence (P54750 whole entry): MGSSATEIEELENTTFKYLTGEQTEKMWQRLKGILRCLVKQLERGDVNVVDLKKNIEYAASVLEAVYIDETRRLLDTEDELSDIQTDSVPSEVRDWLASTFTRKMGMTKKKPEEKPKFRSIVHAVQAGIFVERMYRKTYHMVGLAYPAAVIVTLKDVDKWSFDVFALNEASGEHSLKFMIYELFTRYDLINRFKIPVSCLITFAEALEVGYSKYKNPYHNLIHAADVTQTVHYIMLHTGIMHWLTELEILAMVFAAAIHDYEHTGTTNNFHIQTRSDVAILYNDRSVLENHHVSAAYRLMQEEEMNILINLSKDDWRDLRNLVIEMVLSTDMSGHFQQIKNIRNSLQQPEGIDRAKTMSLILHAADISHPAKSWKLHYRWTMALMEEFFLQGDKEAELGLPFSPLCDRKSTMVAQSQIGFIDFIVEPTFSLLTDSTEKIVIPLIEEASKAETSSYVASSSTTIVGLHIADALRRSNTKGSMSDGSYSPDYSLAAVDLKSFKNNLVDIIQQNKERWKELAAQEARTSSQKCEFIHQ

| Compound | IC50 (PDE9A2; read-out: Band (PDE9A2 IC50)) [µM] | PDE1A selectivity (versus PDE9A2) (PDE1A; [2]) | IC50 (PDE9A2; [3]) [µM] | PDE1B selectivity (versus PDE9A2) (PDE1B; [2]) | further results |
| --- | --- | --- | --- | --- | --- |
| CC1CN(CC2CCN(C(=O)OC(C)(C)C)CC2)CC1c1nn2c(C3CCOCC3)ncc2c(=O)[nH]1 (single isomer, unassigned; (-)) [(−)-tert-butyl (−)-4-(((3,4-trans)-3-methyl-4-(4-oxo-7-(tetrahydro-2H-pyran-4-yl)-3,4-dihydroimidazo[5,1-f][1,2,4]triazin-2-yl)pyrrolidin-1-yl)methyl)piperidine-1-carboxylate] | < 1 |  |  |  | PDE1A selectivity (versus PDE9A2) (PDE1A; [1]): 129; PDE1B selectivity (versus PDE9A2) (PDE1B; [1]): 262 |
| Cc1ccc(F)cc1-c1ncc2c(=O)[nH]c(C3CN(Cc4ccc(F)cc4)CC3C)nn12 (single isomer, unassigned; (+)) [(+)-7-(5-fluoro-2-methylphenyl)-2-((3,4-trans)-1-(4-fluorobenzyl)-4-methylpyrrolidin-3-yl)imidazo[5,1-f][1,2,4]triazin-4(3H)-one] |  |  |  |  | PDE1A selectivity (versus PDE9A2) (PDE1A; ratio of IC50 values PDE1A vs PDE9A2, value greater than 1 indicates greater selectivity for PDE9A2): 1738; IC50 (PDE9A2; IC50 band, 4.0 μM cGMP substrate, 1 hour at R.T.): < 1 µM; PDE1B selectivity (versus PDE9A2) (PDE1B; ratio of IC50 values PDE1B vs PDE9A2, value greater than 1 indicates greater selectivity for PDE9A2): 393 |
| CC1CN(Cc2cc(F)ccc2F)CC1c1nn2c(C3CCOCC3)ncc2c(=O)[nH]1 (single isomer, unassigned; (+)) [(+)-2-((3,4-trans)-1-(2,5-difluorobenzyl)-4-methylpyrrolidin-3-yl)-7-(tetrahydro-2H-pyran-4-yl)imidazo[5,1-f][1,2,4]triazin-4(3H)-one] |  | 97 | < 1 | 118 |  |
| CC1CN(Cc2nccs2)CC1c1nn2c(C3CCOCC3)ncc2c(=O)[nH]1 (single isomer, unassigned; (+)) [(+)-2-((3,4-trans)-4-methyl-1-(thiazol-2-ylmethyl)pyrrolidin-3-yl)-7-(tetrahydro-2H-pyran-4-yl)imidazo[5,1-f][1,2,4]triazin-4(3H)-one] | < 1 |  |  |  | PDE1A selectivity (versus PDE9A2) (PDE1A; [1]): 150; PDE1B selectivity (versus PDE9A2) (PDE1B; [1]): 147 |
| CC1CN(Cc2cccc(Br)c2)CC1c1nn2c(C3CCOCC3)ncc2c(=O)[nH]1 (single isomer, unassigned; (+)) [(+)-2-((3,4-trans)-1-(3-bromobenzyl)-4-methylpyrrolidin-3-yl)-7-(tetrahydro-2H-pyran-4-yl)imidazo[5,1-f][1,2,4]triazin-4(3H)-one] |  | 243 | < 1 | 92 |  |
| CC1CN(Cc2ncco2)CC1c1nn2c(C3CCOCC3)ncc2c(=O)[nH]1 (single isomer, unassigned; (+)) [(+)-2-((3,4-trans)-4-methyl-1-(oxazol-2-ylmethyl)pyrrolidin-3-yl)-7-(tetrahydro-2H-pyran-4-yl)imidazo[5,1-f][1,2,4]triazin-4(3H)-one] | < 1 |  |  |  | PDE1A selectivity (versus PDE9A2) (PDE1A; [1]): 81; PDE1B selectivity (versus PDE9A2) (PDE1B; [1]): 119 |
| Cc1ccc(CN2CC(C)C(c3nn4c(C5CCOCC5)ncc4c(=O)[nH]3)C2)cn1 (single isomer, unassigned; (+)) [(+)-2-((3,4-trans)-4-methyl-1-((6-methylpyridin-3-yl)methyl)pyrrolidin-3-yl)-7-(tetrahydro-2H-pyran-4-yl)imidazo[5,1-f][1,2,4]triazin-4(3H)-one] |  | 97 | < 1 | 177 |  |
| CC1CN(Cc2ccc(F)c(Cl)c2)CC1c1nn2c(C3CCOCC3)ncc2c(=O)[nH]1 (single isomer, unassigned; (+)) [(+)-2-((3,4-trans)-1-(3-chloro-4-fluorobenzyl)-4-methylpyrrolidin-3-yl)-7-(tetrahydro-2H-pyran-4-yl)imidazo[5,1-f][1,2,4]triazin-4(3H)-one] |  |  |  |  | PDE1A selectivity (versus PDE9A2) (PDE1A; ratio of IC50 values PDE1A / PDE9A2, value greater than 1 = greater selectivity for PDE9A2): 604; IC50 (PDE9A2; 4.0 μM cGMP substrate, 1 hour at R.T., read-out: Band (PDE9A2 IC50)): < 1 µM; PDE1B selectivity (versus PDE9A2) (PDE1B; ratio of IC50 values PDE1B / PDE9A2, value greater than 1 = greater selectivity for PDE9A2): 430 |
| CC1CN(Cc2cc(Cl)cc(Cl)c2)CC1c1nn2c(C3CCOCC3)ncc2c(=O)[nH]1 (single isomer, unassigned; (+)) [(+)-2-((3,4-trans)-1-(3,5-dichlorobenzyl)-4-methylpyrrolidin-3-yl)-7-(tetrahydro-2H-pyran-4-yl)imidazo[5,1-f][1,2,4]triazin-4(3H)-one] |  | 93 | < 1 | 92 |  |
| CCc1ncc(CN2CC(C)C(c3nn4c(C5CCOCC5)ncc4c(=O)[nH]3)C2)cn1 (single isomer, unassigned; (+)) [(+)-2-((3,4-trans)-1-((2-ethylpyrimidin-5-yl)methyl)-4-methylpyrrolidin-3-yl)-7-(tetrahydro-2H-pyran-4-yl)imidazo[5,1-f][1,2,4]triazin-4(3H)-one] |  | 855 | < 1 | 1920 |  |
| Cc1nc(CN2CC(C)C(c3nn4c(C5CCOCC5)ncc4c(=O)[nH]3)C2)cs1 (single isomer, unassigned; (+)) [(+)-2-((3,4-trans)-4-methyl-1-((2-methylthiazol-4-yl)methyl)pyrrolidin-3-yl)-7-(tetrahydro-2H-pyran-4-yl)imidazo[5,1-f][1,2,4]triazin-4(3H)-one] | < 1 |  |  |  | PDE1A selectivity (versus PDE9A2) (PDE1A; [1]): 12; PDE1B selectivity (versus PDE9A2) (PDE1B; [1]): 19 |
| CC1CN(Cc2ccccc2Br)CC1c1nn2c(C3CCOCC3)ncc2c(=O)[nH]1 (single isomer, unassigned; (+)) [(+)-2-((3,4-trans)-1-(2-bromobenzyl)-4-methylpyrrolidin-3-yl)-7-(tetrahydro-2H-pyran-4-yl)imidazo[5,1-f][1,2,4]triazin-4(3H)-one] |  | 104 | < 1 | 28 |  |
| Cc1ccncc1-c1ncc2c(=O)[nH]c(C3CN(Cc4ccccc4)CC3C)nn12 (single isomer, unassigned; (+)) [(+)-2-((3,4-trans)-1-benzyl-4-methylpyrrolidin-3-yl)-7-(4-methylpyridin-3-yl)imidazo[5,1-f][1,2,4]triazin-4(3H)-one] | < 1 |  |  |  | PDE1A selectivity (versus PDE9A2) (PDE1A; [4]): 148; PDE1B selectivity (versus PDE9A2) (PDE1B; [5]): 379 |
| CC1CN(Cc2ccc(C(F)(F)F)cn2)CC1c1nn2c(C3CCOCC3)ncc2c(=O)[nH]1 (single isomer, unassigned; (+)) [(+)-2-((3,4-trans)-4-methyl-1-((5-(trifluoromethyl)pyridin-2-yl)methyl)pyrrolidin-3-yl)-7-(tetrahydro-2H-pyran-4-yl)imidazo[5,1-f][1,2,4]triazin-4(3H)-one] |  |  |  |  | PDE1A selectivity (versus PDE9A2) (PDE1A; ratio of IC50 values, PDE1A versus PDE9A2, value greater than 1 = greater selectivity for PDE9A2): 258; IC50 (PDE9A2; Table 3, 4.0 μM cGMP substrate, 1 hour at R.T., read-out: Band (PDE9A2 IC50)): < 1 µM; PDE1B selectivity (versus PDE9A2) (PDE1B; ratio of IC50 values, PDE1B versus PDE9A2, value greater than 1 = greater selectivity for PDE9A2): 560 |
| CC1CN(Cc2cnc3ccccc3n2)CC1c1nn2c(C3CCOCC3)ncc2c(=O)[nH]1 (single isomer, unassigned; (+)) [(+)-2-((3,4-trans)-4-methyl-1-(quinoxalin-2-ylmethyl)pyrrolidin-3-yl)-7-(tetrahydro-2H-pyran-4-yl)imidazo[5,1-f][1,2,4]triazin-4(3H)-one] |  | 453 | < 1 | 1130 |  |
| CC1CN(Cc2cn3ccccc3n2)CC1c1nn2c(-c3ccc(F)cc3)ncc2c(=O)[nH]1 (single isomer, unassigned; (+)) [(+)-7-(4-fluorophenyl)-2-((3,4-trans)-1-(imidazo[1,2-a]pyridin-2-ylmethyl)-4-methylpyrrolidin-3-yl)imidazo[5,1-f][1,2,4]triazin-4(3H)-one] | < 1 |  |  |  | PDE1A selectivity (versus PDE9A2) (PDE1A; [4]): 120; PDE1B selectivity (versus PDE9A2) (PDE1B; [5]): 209 |
| CC1CN(Cc2nc3ccccc3n2C)CC1c1nn2c(C3CCOCC3)ncc2c(=O)[nH]1 (single isomer, unassigned; (+)) [(+)-2-((3,4-trans)-4-methyl-1-((1-methyl-1H-benzo[d]imidazol-2-yl)methyl)pyrrolidin-3-yl)-7-(tetrahydro-2H-pyran-4-yl)imidazo[5,1-f][1,2,4]triazin-4(3H)-one] |  | 181 | < 1 | 356 |  |
| CC1CN(Cc2ccc(F)c(C(F)(F)F)c2)CC1c1nn2c(C3CCOCC3)ncc2c(=O)[nH]1 (single isomer, unassigned; (+)) [(+)-2-((3,4-trans)-1-(4-fluoro-3-(trifluoromethyl)benzyl)-4-methylpyrrolidin-3-yl)-7-(tetrahydro-2H-pyran-4-yl)imidazo[5,1-f][1,2,4]triazin-4(3H)-one] |  | 1687 | < 1 | 1097 |  |
| CC1CN(C(=O)c2cccc(F)c2)CC1c1nn2c(C3CCOCC3)ncc2c(=O)[nH]1 (single isomer, unassigned; (-)) [(−)-2-((3,4-trans)-1-(3-fluorobenzoyl)-4-methylpyrrolidin-3-yl)-7-(tetrahydro-2H-pyran-4-yl)imidazo[5,1-f][1,2,4]triazin-4(3H)-one] |  | 26 | < 1 | 26 |  |
